Assay results taken from patent EP4494466A1, “SULFUR-CONTAINING COMPOUNDS AND USE THEREOF” (Consejo Superior de Investigaciones Científicas (CSIC), priority 2023, dated 2025).

Tests used:
Aspergillus niger = test: Antifungal activity, spore germination inhibition growth assay (MTT); type: cell-based; conditions: A. niger spores, 24 h incubation at 28 °C, 4 replicates
Method: (§1) The fungal species Aspergillus niger and Botrytis cinerea came from the fungal collection of institute de Ciencias Agrarias-CSIC, Madrid, Spain where they are maintained. The antifungal activity of the hydrolate extract and fractions were determined using a modified spore germination inhibition growth assay (Sainz, P. et al. Chemical composition and biological activities of Artemisia pedemontana subsp. assoana essential oils and hydrolate. Biomol. 2019, 9). The hydrolate extract or fractions were dissolved in dimethyl sulfoxide (DMSO) at 1% and evaluated at the final concentrations indicated.
(§2) The spore suspensions were 7.5 × 10^5 cells/mL in NaCl 0.9% for A. niger and 1 × 10^7 cells/mL in distilled water for B. cinerea. Amphotericin B (5 µg/mL) was used as a positive control. The samples and spore suspensions (4 replicates) were placed on 96-well plates and incubated for 24 h (28 °C for A. niger and 25 °C for B. cinerea). After the incubation process, 25 µL of an MTT (5 mg/mL) plus menadione (1 mM) solution in RMPIMOPS were added, the plates were incubated again for 3 h, the medium was removed, 200 µL of acidic isopropanol (95% isopropanol and 5% 1 M HCl) was added, and the plates were incubated for another 30 min. The absorbance was read at 490 nm in an Elisa reader. The IC50 values (the effective dose to give 50% inhibition) were calculated by a regression curve of % spore germination inhibition on log dose.

H. lusitanicum = test: Ixodicidal activity on larvae, cellulose contact toxicity; type: in vivo, Hyalomma lusitanicum; conditions: 24 h contact with treated cellulose, Probit Analysis
Method: H. lusitanicum engorged female ticks were collected in central Spain (Finca La Garganta, Ciudad Real) from their host (deer) and maintained at 22-24 °C and 70% RH until oviposition and egg hatching. Resulting larvae (4-6 weeks old) were used for the bioassays (Galisteo Pretel, A. et al. Germacrone derivatives as new insecticidal and acaricidal compounds: a structure-activity relationship. Mol. 2019, 24). Briefly, 50 µL of test solution were added to 25 mg of powdered cellulose at different concentrations (initial concentration of 20 mg/ml) and the solvent was evaporated. For each test, three replicates with 20 larvae each were used. Dead ticks were counted after 24 h of contact with the treated cellulose at the environmental conditions described, using a binocular magnifying glass. The larvicidal activity data are presented as percent mortality corrected according to Schneider-Orelli's formula (Schneider-Orelli, O. Entomologisches praktikum: Einführung in die land- und forstwirtschaftliche Insektenkunde; aus dem entomologischen institut der eidgenössischen technischen hochschule in Zürich; Sauerländer, 1947). Effective lethal doses (LC50 and LC90, the concentration that kills 50% or 90% of the organisms, respectively) were calculated by Probit Analysis (5 serial dilutions, STATGRAPHICS Centurion XVI, version 16.1.02, Statgraphics Technologies, Inc, P.O. Box 134, The Plains, Virginia 20198, USA).

Botrytis cinerea = test: Antifungal activity, spore germination inhibition growth assay (MTT); type: cell-based; conditions: B. cinerea spores, 24 h incubation at 25 °C, 4 replicates
Method: as §1, §2

C=CCSCC(C=O)=CC [Compound 1, 2-((allylthio)methyl)but-2-enal]
LD50 (95% Confidence Limits) (Aspergillus niger): 78.07 (63.96-95.28)µg/mL
LD50 (95% Confidence Limits) (H. lusitanicum): 8.42 (7.72-10.07) µg/mg
LD90 (95% Confidence Limits) (H. lusitanicum): 15.62 (13.79-18.38) µg/mg

O=CC1=CCCSC1 [Compound 3, 5,6-dihydro-2H-thiopyran-3-carbaldehyde]
LD50 (95% Confidence Limits) (Aspergillus niger): 16.96 (7.98-36.03) µg/mL
LD50 (95% Confidence Limits) (Botrytis cinerea): 8.79 (5.36-14.43) µg/mL
LD90 (95% Confidence Limits) (H. lusitanicum): 3.57 (3.20-4.23) µg/mg
